# Results published in paper PMC3700763, “First human dose-escalation study with remogliflozin etabonate, a selective inhibitor of the sodium-glucose transporter 2 (SGLT2), in healthy subjects and in subjects with type 2 diabetes mellitus” (BMC Pharmacology & Toxicology, 2013).
# Read-outs that look alike come from different tables or passages of the source. Marks after values point to notes of the source that are not given here.
# What was measured:
# [1] = Plasma glucose, healthy subjects; assay type: in vivo, human; settings: mean, very similar between placebo and remogliflozin etabonate periods
# Procedure: Blood samples for glucose were taken at 0 (pre-dose), and 1, 2, 4, 8 and 12 h after dosing in each treatment period (Part A). For Part B, blood samples for glucose, insulin and GLP-1 were taken at check-in on day -2, and at 0 h (pre-dose), and 0.5, 1, 1.5, 2, 4 h (prior to lunch), 4.5, 5, 6, 8, 10, 12 and 24 h after dosing on day 1 of each treatment period.
# For glucose, plasma was analyzed using a YSI 2300 Glucose Analyzer (Yellow Springs International Life Sciences, Yellow Springs, OH, USA). For insulin, plasma was rapidly prepared and frozen at -70°C until analyzed by LabCorp (San Diego, CA, USA) using a chemiluminescent immunometric assay method (Siemen’s Immulite 2000 analyzer with Immulite Insulin Kit L2KIN2).
# [2] = Plasma pharmacokinetics, healthy subjects; assay type: in vivo, human; settings: human; for Cmax: read-out: Cmax; for AUC(0-inf): read-out: AUC(0–∞)
# Procedure: Ten healthy subjects were evaluated in 5 study sessions, each separated by approximately 2 weeks. At each study session, subjects received either an oral dose of remogliflozin etabonate or placebo after an overnight fast. Remogliflozin etabonate doses were 20 mg, 50 mg, 150 mg, 500 mg and 1000 mg. Over the course of participation in the study, each subject received 4 of the 5 active remogliflozin etabonate doses and 1 dose of placebo (4:1 active to placebo ratio per treatment period). The available safety and PK results from each dosing period were evaluated before proceeding to the next dose level. On each dosing day, a series of 2.0 mL blood samples were collected at pre-dose and 10, 20, 30 and 45 min, and 1, 1.25, 1.5, 2, 2.5, 3, 4, 6, 8, 12, 16, and 24 h post-dose for the determination of remogliflozin etabonate, remogliflozin and GSK279782 in plasma by using high-performance liquid chromatography with tandem mass spectrometry (MS/MS) as described. Non-compartmental PK analysis of plasma concentration–time data was performed using WinNonlin Version 4.1 (Pharsight Corporation, Mountainview, CA, USA). The Cmax and Tmax were obtained directly from the data. Areas under the plasma concentration–time curves from time zero to the last quantifiable time point (AUC[0–last]) and extrapolated to infinity (AUC[0–∞]) were calculated using the log-linear trapezoidal method. The terminal plasma elimination rate-constant (λz) was estimated from log-linear regression analysis of the terminal phase of the plasma concentration–time curve, and the T½ was calculated as T½ = ln2/λz. Ratios of AUC(0–∞) remogliflozin to AUC(0–last) remogliflozin etabonate were calculated including molecular weight corrections. Safety and pharmacodynamic data were summarized using descriptive statistics. This was a small exploratory study and no formal hypothesis-testing was conducted. Dose proportionality with respect to Cmax, and AUC was assessed using the power model y = α dose^β, where y = Cmax or AUC, and α denotes a random subject effect. The exponent β in the power model will be estimated by regressing the loge-transformed PK parameters on loge dose, i.e. ln(PK parameter) = ln(α) + β * ln(dose). Dose proportionality implied that β = 1 and was assessed by estimating β and its corresponding 90% confidence interval. The power model was fitted by restricted maximum likelihood using SAS Proc Mixed.
# SGLT2 = molecular target: T1, SGLT2 (Homo sapiens, UniProt P31639); assay: 24-h urine glucose excretion, healthy subjects; assay type: in vivo; settings: for Filtered glucose excreted in urine / Urinary glucose excretion: 24-h, healthy subjects, mean (SD)
# T1 construct: from tissue; host or cells: kidney (proximal tubule) of living human subjects: healthy volunteers and T2DM patients
# T1 sequence (P31639 1-672): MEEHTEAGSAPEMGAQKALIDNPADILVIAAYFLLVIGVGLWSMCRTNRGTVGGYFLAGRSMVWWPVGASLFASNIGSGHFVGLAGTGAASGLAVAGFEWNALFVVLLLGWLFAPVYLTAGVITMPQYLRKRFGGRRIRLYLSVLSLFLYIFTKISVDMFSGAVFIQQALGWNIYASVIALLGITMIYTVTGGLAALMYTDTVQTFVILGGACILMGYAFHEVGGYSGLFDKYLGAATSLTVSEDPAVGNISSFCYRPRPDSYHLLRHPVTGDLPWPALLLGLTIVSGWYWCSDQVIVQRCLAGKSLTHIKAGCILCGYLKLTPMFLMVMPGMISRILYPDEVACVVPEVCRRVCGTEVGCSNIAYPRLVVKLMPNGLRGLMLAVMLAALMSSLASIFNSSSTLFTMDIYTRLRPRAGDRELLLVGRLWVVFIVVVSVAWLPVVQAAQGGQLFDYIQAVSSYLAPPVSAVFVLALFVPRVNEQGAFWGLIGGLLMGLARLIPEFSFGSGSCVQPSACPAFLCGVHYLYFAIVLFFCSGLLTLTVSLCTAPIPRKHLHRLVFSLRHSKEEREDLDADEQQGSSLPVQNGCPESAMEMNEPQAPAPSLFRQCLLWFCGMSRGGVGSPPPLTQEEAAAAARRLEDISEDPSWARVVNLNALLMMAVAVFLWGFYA
# Procedure: Urine samples were collected at pre-dose, and over a series of intervals (0–2, 2–4, 4–6, 6–8, 8–12 and 12–24 h post-dose) for the analysis of creatinine, glucose and electrolytes (Na, K and Cl). All fluid intake was recorded, as well as urine volume, over the 24 hours before and after dosing in each treatment period. Urine was tested for protein on the first morning void of day -1 and 24 h after dosing.
# The percentage of filtered glucose excreted in the urine for each individual time period was calculated as the amount of glucose excreted during that time period divided by (CLCR × PG × time interval length), where CLCR is the creatinine clearance for the time interval, PG is the plasma glucose concentration closest to the midpoint of the time interval, and the time interval is the period (min) of urine collection (CLCR × PG represents the glucose filtered load). For the 24-h period, the percentage of filtered glucose excreted was calculated as the amount of glucose excreted over 24 h divided by the sum over the individual time intervals of (CLCR × PG × time interval length).
# [3] = plasma prodrug, healthy subjects, 50 mg oral dose, geometric mean (CV%)
# [4] = plasma prodrug, healthy subjects, 150 mg oral dose, geometric mean (CV%)
# [5] = plasma prodrug, healthy subjects, 500 mg oral dose, geometric mean (CV%)
# [6] = plasma prodrug, healthy subjects, 1000 mg oral dose, geometric mean (CV%)
structure (smiles),measurement,setting,value
"CCOC(=O)OC[C@H]1O[C@@H](Oc2nn(C(C)C)c(C)c2Cc2ccc(OC(C)C)cc2)[C@H](O)[C@@H](O)[C@@H]1O [Remogliflozin etabonate, remogliflozin etabonate]",Plasma glucose AUC 0–4 h,[1],approximately 18 mmol•h/L
same,Plasma glucose AUC 0–12 h,[1],55 to 59 mmol·h/L
same,half-life,"[2]; plasma, oral, both populations, independent of dose (abstract), read-out: mean plasma T½",~25 min
same,Tmax,"[2]; plasma, oral, healthy subjects, 20-1000 mg, read-out: median Tmax estimates, range across doses",31.2 to 75 min
same,half-life,"[2]; plasma, oral, healthy subjects, 20-1000 mg, read-out: median T½ estimates, range across doses",15.6 to 42.6 min
same,half-life,"[2]; plasma, po, 50 mg, plasma prodrug, healthy subjects, 50 mg oral dose, geometric mean (CV%), n = 6, read-out: T½ (converted)",21.2 min
same,half-life,"[2]; plasma, po, 150 mg, plasma prodrug, healthy subjects, 150 mg oral dose, geometric mean (CV%), n = 6, read-out: T½ (converted)",15.4 min
same,half-life,"[2]; plasma, po, 500 mg, plasma prodrug, healthy subjects, 500 mg oral dose, geometric mean (CV% 27), n = 4, read-out: T½ (converted)",15.8 min
same,half-life,"[2]; plasma, po, 1000 mg, plasma prodrug, healthy subjects, 1000 mg oral dose, geometric mean (CV% 56), n = 7, read-out: T½ (converted)",42.4 min
same,AUC(0-t),"[2]; plasma prodrug, healthy subjects, 20 mg oral dose, geometric mean (CV%), n = 5",1.61 ng·h/mL
same,Cmax,"[2]; plasma prodrug, healthy subjects, 20 mg oral dose, geometric mean (CV%)",1.89 ng/mL
same,Tmax,"[2]; plasma prodrug, healthy subjects, 20 mg oral dose, median, read-out: Tmax",37.5 min
same,AUC(0-t),[2]; [3],3.56 ng·h/mL
same,AUC(0-inf),"[2]; plasma prodrug, healthy subjects, 50 mg oral dose, geometric mean (CV%), n = 6",3.7 ng·h/mL
same,Cmax,[2]; [3],4.98 ng/mL
same,Tmax,"[2]; plasma prodrug, healthy subjects, 50 mg oral dose, median, read-out: Tmax",37.5 min
same,AUC(0-t),[2]; [4],9.51 ng·h/mL
same,AUC(0-inf),"[2]; plasma prodrug, healthy subjects, 150 mg oral dose, geometric mean (CV%), n = 6",9.77 ng·h/mL
same,Cmax,[2]; [4],17.6 ng/mL
same,Tmax,"[2]; plasma prodrug, healthy subjects, 150 mg oral dose, median, read-out: Tmax",30.9 min
same,AUC(0-t),[2]; [5],35.4 ng·h/mL
same,AUC(0-inf),"[2]; plasma prodrug, healthy subjects, 500 mg oral dose, geometric mean (CV%), n = 4",36.8 ng·h/mL
same,Cmax,[2]; [5],41.6 ng/mL
same,Tmax,"[2]; plasma prodrug, healthy subjects, 500 mg oral dose, median, read-out: Tmax",75 min
same,AUC(0-t),[2]; [6],107 ng·h/mL
same,AUC(0-inf),"[2]; plasma prodrug, healthy subjects, 1000 mg oral dose, geometric mean (CV%), n = 7",126 ng·h/mL
same,Cmax,[2]; [6],144 ng/mL
same,Tmax,"[2]; plasma prodrug, healthy subjects, 1000 mg oral dose, median, read-out: Tmax",37.5 min
same,Filtered glucose excreted in urine,SGLT2; 20 mg single dose,9.0 (2.2) %
same,Urinary glucose excretion,SGLT2; 20 mg single dose,67.1 (17.9) mmol
same,Filtered glucose excreted in urine,"SGLT2; 50 mg single dose, n = 7",12.7 (3.7)^b %
same,Urinary glucose excretion,"SGLT2; 50 mg single dose, n = 7",96.7 (17.1)^b mmol
same,Filtered glucose excreted in urine,"SGLT2; 150 mg single dose, n = 7",25.5 (7.8)^b %
same,Urinary glucose excretion,"SGLT2; 150 mg single dose, n = 7",168 (49.4)^b mmol
same,Filtered glucose excreted in urine,SGLT2; 500 mg single dose,34.2 (5.0) %
same,Urinary glucose excretion,SGLT2; 500 mg single dose,223 (49.5) mmol
same,Filtered glucose excreted in urine,SGLT2; 1000 mg single dose,26.4 (11.7) %
same,Urinary glucose excretion,SGLT2; 1000 mg single dose,304 (137) mmol
same,"Total amount of glucose excreted in urine from 0–24 h, dose dependence","SGLT2; both populations, less than proportional to dose",increased in a dose-dependent manner
